Data taken from the supplement of paper PMC10307832.

Tests used:
Test in all cases: relative viability (nuclei count vs DMSO), 5 days (fraction); higher = more cells survive
FG-4592 + Crizotinib = compound: Cc1nc(C(=O)NCC(=O)O)c(O)c2ccc(Oc3ccccc3)cc12 [FG-4592] + C[C@@H](Oc1cc(-c2cnn(C3CCNCC3)c2)cnc1N)c1c(Cl)ccc(F)c1Cl [Crizotinib] (partner 1 µM)
Method in brief: (§1)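 Lung cancer cell lines in 1536-well plates were dosed by pin tool the day after seeding, either with one drug alone or with a fixed anchor-drug dose plus five library-drug doses (not always all listed) in √10 steps. After 5 days, cells were fixed and their nuclei stained in one step (final 0.05% Triton X-100, 1% formaldehyde, 1 ug/ml Hoechst), then counted on 4× images. Relative viability is the nuclei count in treated wells divided by that in vehicle wells. Values are medians of duplicate plates.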

FG-4592 + Olaparib = compound: Cc1nc(C(=O)NCC(=O)O)c(O)c2ccc(Oc3ccccc3)cc12 [FG-4592] + O=C(c1cc(Cc2n[nH]c(=O)c3ccccc23)ccc1F)N1CCN(C(=O)C2CC2)CC1 [Olaparib] (partner 8 µM)
Method in brief: as §1

FG-4592 + Pemetrexed = compound: Cc1nc(C(=O)NCC(=O)O)c(O)c2ccc(Oc3ccccc3)cc12 [FG-4592] + Nc1nc2[nH]cc(CCc3ccc(C(=O)N[C@@H](CCC(=O)O)C(=O)O)cc3)c2c(=O)[nH]1 [Pemetrexed] (partner 0.2 µM)
Method in brief: as §1

IU1-47 + Linsitinib = compound: CC1=CC(=C(N1C2=CC=C(C=C2)Cl)C)C(=O)CN3CCCCC3 [IU1-47] + C[C@]1(O)C[C@@H](c2nc(-c3ccc4ccc(-c5ccccc5)nc4c3)c3c(N)nccn32)C1 [Linsitinib] (partner 1 µM)
Method in brief: as §1

Row | Cell Line | relative viability (FG-4592 + Crizotinib; first compound 0.08 µM) | relative viability (FG-4592 + Crizotinib; first compound 0.253 µM) | relative viability (FG-4592 + Crizotinib; first compound 0.8 µM) | relative viability (FG-4592 + Crizotinib; first compound 2.53 µM) | relative viability (FG-4592 + Crizotinib; first compound 8 µM) | relative viability (FG-4592 + Olaparib; first compound 0.08 µM) | relative viability (FG-4592 + Olaparib; first compound 0.253 µM) | relative viability (FG-4592 + Olaparib; first compound 0.8 µM) | relative viability (FG-4592 + Olaparib; first compound 2.53 µM) | relative viability (FG-4592 + Olaparib; first compound 8 µM) | relative viability (FG-4592 + Pemetrexed; first compound 0.08 µM) | relative viability (FG-4592 + Pemetrexed; first compound 0.253 µM) | relative viability (FG-4592 + Pemetrexed; first compound 0.8 µM) | relative viability (FG-4592 + Pemetrexed; first compound 2.53 µM) | relative viability (FG-4592 + Pemetrexed; first compound 8 µM) | relative viability (IU1-47 + Linsitinib; first compound 0.08 µM) | relative viability (IU1-47 + Linsitinib; first compound 0.253 µM) | relative viability (IU1-47 + Linsitinib; first compound 0.8 µM) | relative viability (IU1-47 + Linsitinib; first compound 2.53 µM) | relative viability (IU1-47 + Linsitinib; first compound 8 µM)
1 | NCI-H2228 | 0.592 | 0.279 | 0.522 | 0.437 | 0.554 | 0.386 | 0.697 | 0.794 | 0.517 | 0.693 | 0.368 | 0.302 | 0.434 | 0.331 | 0.32 | 0.586 | 0.555 | 0.752 | 0.521 | 0.414
2 | HOP-62 | 0.981 | 0.89 | 1.01 | 0.922 | 0.654 | 0.373 | 0.561 | 0.496 | 0.383 | 0.338 | 0.287 | 0.317 | 0.35 | 0.304 | 0.324 | 0.98 | 1.04 | 0.805 | 0.677 | 0.886
3 | HARA | 1.06 | 0.967 | – | 1 | 0.977 | – | – | – | 0.738 | 0.987 | – | – | – | 0.251 | 0.24 | 1.19 | 1.13 | 1.08 | 0.931 | 0.678
4 | NCI-H838 | 0.795 | 0.799 | 0.962 | 0.941 | 0.904 | 0.796 | 0.71 | 0.796 | 0.756 | 0.806 | 0.257 | 0.279 | 0.227 | 0.244 | 0.253 | 1.07 | 1.07 | 1.12 | 1.09 | 1.07
5 | IA-LM | 0.766 | 0.824 | 0.805 | 0.644 | 0.76 | 0.712 | 0.623 | 0.663 | 0.81 | 0.727 | – | – | – | – | – | 0.526 | 0.407 | 0.655 | 0.741 | 0.604
6 | NCI-H1793 | – | – | – | – | – | – | 0.727 | – | 0.827 | 0.71 | – | 0.95 | – | 0.833 | 0.782 | 0.822 | 0.868 | 0.976 | – | 0.689
7 | ChaGo-K-1 | 1.12 | 1.09 | 1.14 | 1.09 | 0.942 | 0.44 | 0.399 | 0.4 | 0.461 | 0.456 | 0.266 | 0.258 | 0.26 | 0.26 | 0.274 | – | – | – | – | –
8 | NCI-H522 | – | – | – | – | – | 0.766 | 0.644 | – | 0.588 | 0.678 | 1.11 | 0.878 | – | 0.728 | 0.869 | – | – | – | – | –
9 | NCI-H1299 | 0.953 | 0.903 | 0.976 | 0.93 | 0.989 | 0.935 | 0.906 | 1.01 | 1.01 | 0.971 | – | – | – | – | – | 0.943 | 0.951 | 1.05 | 1.01 | 0.975
10 | NCI-H1650 | 1.14 | 0.826 | 1.21 | 1.05 | 1.02 | 0.786 | 0.721 | 0.843 | 0.781 | 0.869 | 0.388 | 0.346 | 0.409 | 0.362 | 0.344 | – | – | – | – | –
11 | NCI-H1648 | – | – | – | – | – | 0.712 | 0.647 | – | 0.483 | 1.43 | 0.753 | 0.786 | – | 0.595 | 1.12 | – | – | – | – | –
12 | NCI-H727 | 0.776 | 0.827 | 0.913 | 1.1 | 0.83 | 0.698 | 0.782 | 0.752 | 0.681 | 0.672 | – | – | – | – | – | 0.315 | – | 0.274 | 0.221 | 0.269
13 | NCI-H2342 | – | – | – | – | – | 0.433 | 0.436 | 0.452 | 0.436 | 0.422 | 0.682 | 0.767 | 0.77 | 0.8 | 0.738 | – | – | – | – | –
14 | SW 900 | – | – | – | – | – | – | 0.946 | – | 0.812 | 0.794 | – | 0.48 | – | 0.493 | 0.487 | – | – | – | – | –
15 | NCI-H1395 | – | – | – | – | – | 0.526 | 0.488 | 0.471 | 0.48 | 0.385 | 0.877 | 0.859 | 0.528 | 0.768 | 0.671 | 1.04 | 1.07 | 0.978 | – | 0.987
16 | A549 | 0.631 | 0.736 | 0.87 | 0.831 | 0.826 | 0.252 | 0.274 | – | 0.44 | 0.385 | – | – | – | – | – | 0.548 | 0.691 | 0.608 | – | 0.553
17 | NCI-H2170 | 1.16 | 1.14 | 1.24 | 1.22 | 0.909 | 0.573 | 0.547 | 0.707 | 0.664 | 0.52 | 0.235 | 0.308 | 0.256 | 0.266 | 0.252 | – | – | – | – | –
18 | NCI-H1563 | 0.893 | 0.888 | 0.91 | 0.889 | 0.804 | – | – | – | – | – | 0.628 | 0.732 | 0.6 | 0.759 | 0.715 | 1.22 | 1.05 | 1.19 | 1.07 | 1.14
19 | ABC-1 | 1.28 | – | 1.64 | 1.18 | 1.13 | 0.781 | 0.798 | – | 1.13 | 1.07 | – | – | – | – | – | 0.887 | 0.768 | 0.986 | – | 0.777
